Experimental data reported in patent publication US6291432A (Japan Energy Corporation, priority 1996, dated 2001).

These compounds were tested against T1, recombinant HIV-1 protease (Human immunodeficiency virus type 1 group M subtype B, UniProt P04585) (assay: HIV protease inhibition activity (enzyme activity inhibition rate)). Details: 50 nM final concentration of test compound; 60 min at 37° C.
T1 construct: measured using a recombinant HIV-1 protease
Type: biochemical
Procedure: The protease activity was measured using a recombinant HIV-1 protease (see Biochemistry, 250 (9)-264 (1990)) and a synthesized peptide substrate. The inhibition rate was calculated by determining a peptide fragment generated by cleavage between Tyr-Pro of the synthesized substrate after the reaction of 60 min at 37° C. using a reversed phase HPLC in the presence of the test compounds in various concentrations (see, for example, Japanese Patent Application Laid-open No. 170722/1993).
Examples of the evaluation results of the HIV protease inhibition activity of the tripeptide compound of the present invention by the above-described method is shown in Table 1. […] The concentration of the test compounds in Table 1 represents the final concentration in the reaction mixture.
For `CC[C@H](NC(=O)COc1ccc2ncccc2c1)C(=O)N[C@@H](Cc1ccccc1)[C@H](O)C(=O)N1CSC(C)(C)[C@H]1C(=O)NCc1ccccc1C` [Example 24, (R)-N-(2-methylbenzyl)-3-{(2S,3S)-2-hydroxy-3-[(S)-2-(6-quinolinyloxyacetyl)aminobutanoyl]amino-4-phenylbutanoyl}-5,5-dimethyl-1-thiazolidine-4-carbox amide], the “Enzyme activity inhibition rate (%) (addition concentration of 50 nM)” value (shortened to “Enzyme activity inhibition rate (%)”) was 98.1%. In the case of `CC[C@H](NC(=O)COc1cccc(N(C)C)c1)C(=O)N[C@@H](Cc1ccccc1)[C@H](O)C(=O)N1CSC(C)(C)[C@H]1C(=O)NCc1ccccc1C` [Example 25, (R)-N-(2-methylbenzyl)-3-{(2S,3S)-2-hydroxy-3-[(S)-2-(3-dimethylaminophenoxyacetyl)aminobutanoyl]amino-4-phenylbutanoyl}-5,5-dimethyl-1-thiazolidine-4-carboxamide], the “Enzyme activity inhibition rate (%)” value is reported as 99.9%. With “(R)-N-(2-methylbenzyl)-3-{(2S,3S)-3-[N-(3-benzylphenoxyacetyl)-L-valyl]amin o-2-hydroxy-4-phenylbutanoyl}-5,5-dimethyl-1,3-thiazolidine-4-carboxamide [Example 17]” the “Enzyme activity inhibition rate (%)” value was 97.1%.

Same assay, conditions: 50 nM final concentration of test compound; 60 min at 37° C.; read-out: Enzyme activity inhibition rate (%) (addition concentration of 50 nM)
Work on `COC(=O)N[C@@H](CC(N)=O)C(=O)N[C@@H](Cc1ccccc1)[C@H](O)C(=O)N1CSC(C)(C)[C@H]1C(=O)NCc1ccccc1C` [Example 40, (R)-N-(2-methylbenzyl)-3-{(2S,3S)-2-hydroxy-3-[N-(methoxycarbonyl)-L-asparaginyl]amino-4-phenylbutanoyl}-5,5-dimethyl-1,3-thiazolidine-4-carboxamide] yielded an inhibition at 0.05 µM of 94.3%. Work on `Cc1ccccc1CNC(=O)[C@H]1N(C(=O)[C@@H](O)[C@H](Cc2ccccc2)NC(=O)[C@@H](NS(C)(=O)=O)C(C)C)CSC1(C)C` [Example 37, (R)-N-(2-methylbenzyl)-3-{(2S,3S)-2-hydroxy-3-[(S)-2-methanesulfonylamino-3-methylbutanoyl]amino-4-phenylbutanoyl}-5,5-dimethyl-1,3-thiazolidine-4-car boxamide] yielded an inhibition at 0.05 µM of 70.1%. `Cc1ccccc1CNC(=O)[C@H]1N(C(=O)[C@@H](O)[C@H](Cc2ccccc2)NC(=O)[C@@H](NC(=O)c2nc3ccccc3s2)C(C)C)CSC1(C)C` [Example 14, (R)-N-(2-methylbenzyl)-3-{(2S,3S)-3-[N-(2-benzothiazolecarbonyl)-L-valyl]amino-2-hydroxy-4-phenylbutanoyl}-5,5-dimethyl-1,3-thiazolidine-4-carboxamide] showed an inhibition at 0.05 µM of 95.8%. Compound `CC[C@H](NS(C)(=O)=O)C(=O)N[C@@H](Cc1ccccc1)[C@H](O)C(=O)N1CSC(C)(C)[C@H]1C(=O)NCc1ccccc1C` [Example 38, (R)-N-(2-methylbenzyl)-3-{(2S,3S)-2-hydroxy-3-[(S)-2-methanesulfonylaminobutanoyl]amino-4-phenylbutanoyl}-5,5-dimethyl-1,3-thiazolidine-4-carboxamide] has an inhibition at 0.05 µM of 76%. `CC[C@H](NC(C)=O)C(=O)N[C@@H](Cc1ccccc1)[C@H](O)C(=O)N1CSC(C)(C)[C@H]1C(=O)NCc1ccccc1C` [Example 34, (R)-N-(2-methylbenzyl)-3-{(2S,3S)-2-hydroxy-3-[(S)-2-acetylaminobutanoyl]amino-4-phenylbutanoyl}-5,5-dimethyl-1,3-thiazolidine-4-carboxamide] was tested, and the inhibition at 0.05 µM was 88.9%. In the case of `Cc1ccccc1CNC(=O)[C@H]1N(C(=O)[C@@H](O)[C@H](Cc2ccccc2)NC(=O)[C@@H](NC(=O)COc2cccc3ncccc23)C(C)C)CSC1(C)C` [Example 23, (R)-N-(2-methylbenzyl)-3-{(2S,3S)-2-hydroxy-3-[(S)-2-(5-quinolinyloxyacetyl)amino-3-methylbutanoyl]amino-4-phenylbutanoyl}-5,5-dimethyl-1,3-thiazolidine-4-carboxamide], the inhibition at 0.05 µM is reported as 98.5%. Compound `Cc1ccccc1CNC(=O)[C@H]1N(C(=O)[C@@H](O)[C@H](Cc2ccccc2)NC(=O)[C@@H](NC(=O)OCc2ccccc2)C(C)C)CSC1(C)C` [Example 4, (R)-N-(2-methylbenzyl)-3-{(2S,3S)-3-[N-(benzyloxycarbonyl)-L-valyl]amino-2-hydroxy-4-phenylbutanoyl}-5,5-dimethyl-1,3-thiazolidine-4-carboxamide] has an inhibition at 0.05 µM of 95.3%. With `Cc1ccccc1CNC(=O)[C@H]1N(C(=O)[C@@H](O)[C@H](Cc2ccccc2)NC(=O)[C@@H](NC(=O)c2ccc3ccccc3n2)C(C)C)CSC1(C)C` [Example 13, (R)-N-(2-methylbenzyl)-3-{(2S,3S)-3-[N-(2-quinolinecarbonyl)-L-valyl]amino-2-hydroxy-4-phenylbutanoyl}-5,5-dimethyl-1,3-thiazolidine-4-carboxamide] the inhibition at 0.05 µM was 96.6%. Work on `Cc1ccccc1CNC(=O)[C@@H]1[C@@H](C)OCN1C(=O)[C@@H](O)[C@H](Cc1ccccc1)NC(=O)[C@H](CC(N)=O)NC(=O)OCc1ccccc1` [Example 9, (4S,5R)-N-(2-methylbenzyl)-3-{(2S,3S)-3-[N-(benzyloxycarbonyl)-L-asparaginyl]amino-2-hydroxy-4-phenylbutanoyl}-5-methyl-1,3-oxazolidine-4-carboxamide] yielded an inhibition at 0.05 µM of 61.9%. `COCC(=O)N[C@H](C(=O)N[C@@H](Cc1ccccc1)[C@H](O)C(=O)N1CSC(C)(C)[C@H]1C(=O)NCc1ccccc1C)C(C)C` [Example 31, (R)-N-(2-methylbenzyl)-3-{(2S,3S)-2-hydroxy-3-[(S)-2-(methoxyacetyl)amino-3-methylbutanoyl]amino-4-phenylbutanoyl}-5,5-dimethyl-1,3-thiazolidine-4-car boxamide] gave an inhibition at 0.05 µM of 89.6%. Compound `CC(=O)N[C@H](C(=O)N[C@@H](Cc1ccccc1)[C@H](O)C(=O)N1CSC(C)(C)[C@H]1C(=O)NCc1ccccc1C)C(C)C` [Example 33, (R)-N-(2-methylbenzyl)-3-{(2S,3S)-2-hydroxy-3-[(S)-2-acetylamino-3-methylbutanoyl]amino-4-phenylbutanoyl}-5,5-dimethyl-1,3-thiazolidine-4-carboxamide] has an inhibition at 0.05 µM of 89.8%. Work on `Cc1ccccc1CNC(=O)[C@H]1N(C(=O)[C@@H](O)[C@H](Cc2ccccc2)NC(=O)[C@H](CC(N)=O)NC(=O)c2cnc3ccccc3n2)CSC1(C)C` [Example 18, (R)-N-(2-methylbenzyl)-3-{(2S,3S)-3-[N-(2-quinoxalinecarbonyl)-L-asparaginyl]amino-2-hydroxy-4-phenylbutanoyl}-5,5-dimethyl-1,3-thiazolidine-4-carboxamide] yielded an inhibition at 0.05 µM of 98.8%. With `COc1cccc2cc(C(=O)N[C@@H](C)C(=O)N[C@@H](Cc3ccccc3)[C@H](O)C(=O)N3CSC(C)(C)[C@H]3C(=O)NCc3ccccc3C)oc12` [Example 20, (R)-N-(2-methylbenzyl)-3-{(2S,3S)-2-hydroxy-3-[(S)-2-(7-methoxy-2-benzofurancarbonyl)aminopropanoyl]amino-4-phenylbutanoyl}-5,5-dimethyl-1,3-thiazolidine-4-carboxamide] the inhibition at 0.05 µM was 97.6%. For `Cc1ccccc1CNC(=O)[C@H]1N(C(=O)[C@@H](O)[C@H](Cc2ccccc2)NC(=O)[C@@H](NC(=O)COc2cccc3cnccc23)C(C)C)CSC1(C)C` [Example 8, (R)-N-(2-methylbenzyl)-3-{(2S,3S)-3-[N-(5-isoquinolinyloxyacetyl)-L-valyl]amino-2-hydroxy-4-phenylbutanoyl}-5,5-dimethyl-1,3-thiazolidine-4-carboxamide], the inhibition at 0.05 µM was 97.7%.
